Results: US20230339856A1, “NOVEL PHARMACOLOGICAL CHAPERONE COMPOUNDS OF HUMAN ACID ALPHA-GLUCOSIDASE AND THE THERAPEUTIC USE THEREOF” (UNIVERSITÉ GRENOBLE ALPES, priority 2020, published 2023)
pIC50, pKi: −log10 of the molar value. Like-named read-outs stand apart in the source and are kept apart here.

Experiments:
[1] = molecular target: T1, recombinant human acid α-glucosidase (rhGAA) (Homo sapiens (Human), UniProt P10253); experiment: Inhibition of rhGAA determined by Fluopol-ABPP; format: binding; settings: McIlvaine buffer pH 5.0, 37° C., TAMRA probe
Source text: The inhibiting activity on recombinant human acid α-glucosidase (rhGAA) of the compounds is implemented using the Fluopol-ABPP method (Fluorescence Polarization Activity Based Protein Profiling) described in the publication of Lahav et al., 2017, J. Am. Chem. Soc. 139: 14192-14197. This technique, based on the competition between an inhibitor and a fluorescent probe capable of binding covalently to the active site of an enzyme, makes it possible to measure the affinity of this inhibitor for the active site of the rhGAA enzyme used for these experiments by the laboratory of Professors Herman S. Overkleeft and Johanes M. F. G. Aerts, Leiden Institute of Chemistry, Leiden University (NL), is the enzyme marketed under the name Myozyme®. […] The […] (TAMRA) fluorescent probe in solution (25 nM) in the buffer is next added to the mixture. After 4 hours, the samples are irradiated with a polarized light (λ=530 nm) and the fluorescence emitted (λ=580 nm) is measured by means of an Infinite® M1000Pro (Tecan) spectrofluorimeter. For each concentration of inhibitor, the percentage of inhibition of the enzyme is determined by the formula:
%Inhibition=[Fmeasured−Fcontrol1)/Fcontro2)×100
The IC50 values are calculated by a non-linear regression of the % inhibition as a function of the concentration [I] by means of the GraphPad Prism 6.0 software. The results are a mean of three identical experiments (triplicates).

[2] = molecular target: T1, recombinant human acid α-glucosidase (rhGAA); experiment: Inhibition of rhGAA determined by measuring the residual activity in vitro; format: biochemical; settings: sodium acetate buffer pH 4.0, 37° C.; for pIC50: 4-nitrophenyl-α-D-glucopyranoside substrate
rhGAA = rhGAA (Homo sapiens (Human), UniProt P10253); experiment: Thermal stabilization of rhGAA by DSF (differential scanning fluorimetry); format: binding
Description: The stabilization of rhGAA in the presence of the compounds is determined in accordance with the method described in the publication of Niesen et al., 2007, Nat. Protoc. 2: 2212-2221. The rhGAA enzyme (2.5 μg, 0.1 mg/mL) is incubated in the absence and in the presence of each compound (at a concentration [I]=100 μM), of SYPRO® orange dye (Life Technologies), and of sodium phosphate buffer (25 mM) and of NaCI (150 mM), pH 7.4 or of sodium acetate buffer (25 mmol) and of NaCl (150 mM), pH 4.0. The thermal stability of the enzyme in these various conditions is evaluated by DSF (differential scanning fluorimetry) by varying the temperature by 1° C./min over an interval of 25 to 95° C., and measuring the fluorescence of the SYPRO® orange dye every minute by means of a Real-Time Cycler spectrofluorimeter (Biorad). The relative fluorescence is determined by comparing each fluorescence value measured with that of the maximum fluorescence value of the SYPRO® orange dye for each scan. The results are a mean of three identical experiments (triplicates).

[3] = molecular target: α-glucosidase II of the endoplasmic reticulum (GANAB) (Homo sapiens (Human), UniProt Q14697); experiment: Inhibition of GANAB in lysates of fibroblasts of Pompe patients; format: biochemical; settings: pH 7.0, 4-methyl-umbelliferone-α-D-glucopyranoside 2.4 mM, 2 hours
Description: (§1) The selectivity of the compounds was evaluated in the laboratory of Professors Herman S. Overkleeft and Johanes M. F. G. Aerts, Leiden Institute of Chemistry, Leiden University (NL). The enzymes used for determining the selectivity of inhibition of the compounds with respect to various human enzymes are the α-glucosidase II of the endoplasmic reticulum (GANAB), recombinant human lysosomal β-glucocerebrosidase (GBA1), human non-lysosomal β-glucosylceramidase (GBA2) and β-glucosylceramide synthase (GCS). The inhibiting activity of the compounds on these various enzymes is determined as described in the publication by Artola et al., 2017, ACS Cent. Sci. 3: 784-793. The enzyme GBA1 sold under the name Cerezyme® and the enzyme rhGAA sold under the name Myozyme® are used. The human GANAB enzyme used for this study is that of fibroblasts of patients suffering from Pompe disease diagnosed as lacking active GAA and voluntary donors. These fibroblasts were cultivated on an HAMF12-DMEM medium (Sigma) supplemented by 10% (v/v) FCS (fetal calf serum). The GBA2 enzyme was over-expressed in HEK298T cells cultivated on a DMEM medium enriched with glucose (Gibco) supplemented by 10% NBS (newborn bovine serum) and 100 units/mL of penicillin/streptomycin (Gibco) and 5% CO2 at 37° C. The activity of the compounds on human β-glucosylceramide synthase (GCS) is evaluated in situ on cells of the RAW 264.7 type cultivated on an RPMI medium (Gibco) supplemented by 10% FCS, 1 mM of glutamax, 100 units/mL of penicillin/streptomycin (Gibco) and 5% CO2 at 37° C.
(§2) These cell lysates are homogenized using a SilentCrusher grinder (Heidolph®), and then subjected to ultracentrifugation at 32,000 rpm for 30 minutes at 4° C. The total protein concentration is determined in accordance with the Bradford method (Bradford, 1976, Anal. Biochem. 72: 248-254), using a Bradford BioRad Quick Start® kit (Pierce) and BSA (Sigma). The lysates are next aliquoted and stored at −80° C. before use.

[4] = molecular target: recombinant human lysosomal β-glucocerebrosidase (GBA1) (Homo sapiens (Human), UniProt P04062, R534H); experiment: Inhibition of GBA1 (Cerezyme); format: biochemical; settings: pH 5.2, 4-methyl-umbelliferone-β-D-glucopyranoside 3.0 mM, 30 minutes
Description: as §1

[5] = molecular target: human non-lysosomal β-glucosylceramidase (GBA2) (Homo sapiens (Human), UniProt Q9HCG7); experiment: Inhibition of GBA2 in lysates of HEK298T cells over-expressing GBA2; format: biochemical; settings: pH 5.8, 4-methyl-umbelliferone-β-D-glucopyranoside 3.0 mM, 1 hour
Description: as §1, §2
The residual activity of GBA2 in the presence of the compounds is determined after pre-incubation for 30 minutes of the homogenates of HEK298T cells over-expressing GBA2 with an inhibitor of GBA1, conduritol β-epoxide (Sigma), at a concentration of 1 mM.

[6] = molecular target: β-glucosylceramide synthase (GCS) (Mus musculus (Mouse), UniProt O88693); experiment: Inhibition of GCS in situ in RAW 264.7 cells; format: cell-based; settings: pH 7.0, 1 μM NBD-ceramide
Description: as §1, §2
The residual activity of GCS in the presence of the compounds is determined after pre-incubation for 1 hour of the homogenates of RAW 264.7 cells with an inhibitor of GBA1, conduritol β-epoxide (Sigma), at a concentration of 300 μM.
The I50 values for the GCS enzyme are determined in situ in the cell culture medium at pH 7.0 using 1 μM of NBD-ceramide (N-[12-[(7-nitro-2-1,3-benzoxadiazol-4-yl)amino]dodecanoyl]-D-erythro-sphingosine) as substrate, as described in the aforementioned publication of Lahav et al.

[7] = [I]=100 μM, pH 4.0, read-out: rhGAA ΔTm at pH 4.0
[8] = [I]=100 μM, pH 7.4, read-out: rhGAA ΔTm at pH 7.4

human non-lysosomal β-glucosylceramidase (GBA2), sequence (Q9HCG7 whole entry): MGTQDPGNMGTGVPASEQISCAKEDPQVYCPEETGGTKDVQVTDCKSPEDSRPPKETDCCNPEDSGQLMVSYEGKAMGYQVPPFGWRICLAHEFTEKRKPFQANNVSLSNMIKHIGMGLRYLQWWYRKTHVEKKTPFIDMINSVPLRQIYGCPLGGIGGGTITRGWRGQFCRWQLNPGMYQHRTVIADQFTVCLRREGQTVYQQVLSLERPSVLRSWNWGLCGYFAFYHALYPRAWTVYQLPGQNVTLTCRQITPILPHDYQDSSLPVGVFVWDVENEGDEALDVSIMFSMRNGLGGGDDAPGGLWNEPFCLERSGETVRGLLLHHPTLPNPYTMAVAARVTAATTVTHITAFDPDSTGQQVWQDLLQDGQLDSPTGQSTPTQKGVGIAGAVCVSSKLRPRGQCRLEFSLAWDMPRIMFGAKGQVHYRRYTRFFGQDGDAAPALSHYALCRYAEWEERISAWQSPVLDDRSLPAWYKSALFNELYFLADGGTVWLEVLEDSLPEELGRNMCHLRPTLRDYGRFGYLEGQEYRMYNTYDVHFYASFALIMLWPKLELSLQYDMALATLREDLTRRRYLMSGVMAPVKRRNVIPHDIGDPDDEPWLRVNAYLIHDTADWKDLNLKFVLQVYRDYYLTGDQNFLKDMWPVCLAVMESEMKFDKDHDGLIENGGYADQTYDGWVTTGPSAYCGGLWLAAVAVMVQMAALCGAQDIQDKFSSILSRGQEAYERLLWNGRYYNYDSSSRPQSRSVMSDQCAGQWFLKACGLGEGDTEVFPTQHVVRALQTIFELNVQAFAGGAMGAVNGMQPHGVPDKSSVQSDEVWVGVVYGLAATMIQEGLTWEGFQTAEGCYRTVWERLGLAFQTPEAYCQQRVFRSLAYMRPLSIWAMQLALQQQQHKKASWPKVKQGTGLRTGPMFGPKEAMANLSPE
β-glucosylceramide synthase (GCS), sequence (O88693 whole entry): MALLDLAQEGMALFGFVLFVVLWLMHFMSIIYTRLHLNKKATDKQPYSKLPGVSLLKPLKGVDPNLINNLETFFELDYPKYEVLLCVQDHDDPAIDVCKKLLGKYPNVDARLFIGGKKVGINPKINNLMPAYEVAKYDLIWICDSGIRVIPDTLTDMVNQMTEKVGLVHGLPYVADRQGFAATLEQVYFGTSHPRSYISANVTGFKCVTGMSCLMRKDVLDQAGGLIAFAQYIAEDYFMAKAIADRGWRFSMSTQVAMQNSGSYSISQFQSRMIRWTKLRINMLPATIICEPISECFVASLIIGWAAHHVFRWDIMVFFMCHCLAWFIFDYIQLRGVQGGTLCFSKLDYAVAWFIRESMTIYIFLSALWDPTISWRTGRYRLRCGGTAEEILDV
α-glucosidase II of the endoplasmic reticulum (GANAB), sequence (Q14697 29-944): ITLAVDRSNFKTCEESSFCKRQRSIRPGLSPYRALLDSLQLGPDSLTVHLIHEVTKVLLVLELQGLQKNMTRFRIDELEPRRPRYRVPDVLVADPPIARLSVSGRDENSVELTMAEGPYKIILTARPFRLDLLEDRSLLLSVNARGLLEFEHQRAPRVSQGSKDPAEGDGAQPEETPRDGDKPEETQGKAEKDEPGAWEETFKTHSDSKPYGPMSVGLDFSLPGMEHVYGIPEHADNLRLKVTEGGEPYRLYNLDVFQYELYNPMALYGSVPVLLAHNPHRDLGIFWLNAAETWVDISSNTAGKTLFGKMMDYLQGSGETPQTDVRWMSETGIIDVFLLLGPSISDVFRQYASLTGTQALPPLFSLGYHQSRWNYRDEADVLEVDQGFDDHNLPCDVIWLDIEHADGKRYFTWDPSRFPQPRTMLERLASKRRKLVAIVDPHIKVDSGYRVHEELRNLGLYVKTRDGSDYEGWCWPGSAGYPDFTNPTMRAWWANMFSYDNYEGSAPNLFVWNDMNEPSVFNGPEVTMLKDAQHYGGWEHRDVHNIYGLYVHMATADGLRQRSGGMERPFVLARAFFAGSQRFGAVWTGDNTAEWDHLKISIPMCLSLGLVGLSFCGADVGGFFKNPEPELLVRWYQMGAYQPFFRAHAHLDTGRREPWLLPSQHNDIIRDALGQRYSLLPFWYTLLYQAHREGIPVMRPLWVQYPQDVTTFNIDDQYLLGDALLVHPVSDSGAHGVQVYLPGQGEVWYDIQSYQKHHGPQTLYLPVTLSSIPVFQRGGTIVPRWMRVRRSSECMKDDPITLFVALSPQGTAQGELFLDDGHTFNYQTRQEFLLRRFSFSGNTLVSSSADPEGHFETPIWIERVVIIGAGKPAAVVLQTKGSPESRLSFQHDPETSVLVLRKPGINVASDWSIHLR
α-glucosidase II of the endoplasmic reticulum (GANAB), sequence (P14314 15-528 partner): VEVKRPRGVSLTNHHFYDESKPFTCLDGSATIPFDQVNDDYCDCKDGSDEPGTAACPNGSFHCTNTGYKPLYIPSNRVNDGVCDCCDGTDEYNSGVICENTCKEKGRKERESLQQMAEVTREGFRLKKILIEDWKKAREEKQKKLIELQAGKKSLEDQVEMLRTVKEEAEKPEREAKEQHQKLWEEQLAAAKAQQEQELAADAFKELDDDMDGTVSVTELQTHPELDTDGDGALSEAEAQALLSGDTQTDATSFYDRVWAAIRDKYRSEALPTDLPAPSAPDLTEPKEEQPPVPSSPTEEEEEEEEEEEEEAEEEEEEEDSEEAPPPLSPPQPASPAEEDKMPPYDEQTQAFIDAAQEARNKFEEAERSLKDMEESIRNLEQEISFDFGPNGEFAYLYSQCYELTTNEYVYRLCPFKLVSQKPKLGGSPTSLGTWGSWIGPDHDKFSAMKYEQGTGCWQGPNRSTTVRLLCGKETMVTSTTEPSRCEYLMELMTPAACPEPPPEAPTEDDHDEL
recombinant human lysosomal β-glucocerebrosidase (GBA1), sequence (P04062 40-536 R534H limits assumed): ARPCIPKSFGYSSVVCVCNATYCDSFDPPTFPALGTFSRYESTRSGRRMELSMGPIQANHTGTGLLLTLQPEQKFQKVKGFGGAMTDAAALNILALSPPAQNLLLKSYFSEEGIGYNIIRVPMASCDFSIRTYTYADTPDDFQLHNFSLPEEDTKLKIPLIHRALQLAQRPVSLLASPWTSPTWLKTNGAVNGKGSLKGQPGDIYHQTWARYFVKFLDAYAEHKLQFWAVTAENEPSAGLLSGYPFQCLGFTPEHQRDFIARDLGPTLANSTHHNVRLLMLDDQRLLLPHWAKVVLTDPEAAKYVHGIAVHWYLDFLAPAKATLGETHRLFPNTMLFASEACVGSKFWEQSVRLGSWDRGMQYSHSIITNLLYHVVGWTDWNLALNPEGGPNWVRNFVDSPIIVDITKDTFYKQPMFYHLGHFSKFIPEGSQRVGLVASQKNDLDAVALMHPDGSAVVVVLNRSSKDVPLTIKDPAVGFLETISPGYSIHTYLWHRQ

pKi [2] | pIC50 [2] | ΔTm at 100 µM (rhGAA; [8]) | pIC50 [3] | pIC50 [4] | pIC50 [5] | pIC50 [6] | Structure (SMILES) | pIC50 [1] | also measured
4.89 | 3.98 | 11.5 °C | < 4.00 | < 3.00 | < 3.00 | < 4.30 | CCC[C@]1(CO)NC[C@H](O)[C@@H](O)[C@@H]1O [(IIb), (2R,3R,4R,5S)-2-(hydroxymethyl)-2-propylpiperidine-3,4,5-triol] | 6.41 | ΔTm at 100 µM (rhGAA; [7]): 7.8 °C
– | 3.47 | 12.7 °C | < 4.00 | < 3.00 | < 3.00 | < 4.30 | CC[C@]1(CO)NC[C@H](O)[C@@H](O)[C@@H]1O [(IIa), (2R,3R,4R,5S)-2-ethyl-2-(hydroxymethyl)piperidine-3,4,5-triol] | 6.38 | ΔTm at 100 µM (rhGAA; [7]): 8.1 °C
– | – | – | – | – | – | – | OC[C@@H](O)[C@H]1N2C[C@H](O)[C@@H](O)[C@H](O)[C@]12CO (stereo partly drawn) [Compound (IIj), (3S,4R,5R,6R,7S)-7-((S)-1,2-dihydroxyethyl)-6-(hydroxymethyl)-1-azabicyclo[4.1.0]heptane-3,4,5-triol] | 4.82 | –
– | – | – | – | – | – | – | OC[C@H]1N2C[C@H](O)[C@@H](O)[C@H](O)[C@]12CO (stereo partly drawn) [Compound (IIk), (3S,4R,5R,6R,7S)-6,7-bis(hydroxymethyl)-1-azabicyclo[4.1.0]heptane-3,4,5-triol] | 4.94 | –
– | – | – | – | – | – | – | OC[C@]12[C@@H](O)[C@H](O)[C@@H](O)CN1[C@@H]2C(O)c1ccccc1 (stereo in doubt) [Compound (IIm), (3S,4R,5R,6R,7S)-7-((S)-hydroxy(phenyl)methyl)-6-(hydroxymethyl)-1-azabicyclo[4.1.0]heptane-3,4,5-triol] | 4.35 | –
5.12 | 4.43 | 13 °C | < 4.00 | < 3.00 | < 3.00 | < 4.30 | OC[C@@]1(CCc2ccccc2)NC[C@H](O)[C@@H](O)[C@@H]1O [(IIc), (2R,3R,4R,5S)-2-(hydroxymethyl)-2-phenethylpiperidine-3,4,5-triol] | 6.66 | ΔTm at 100 µM (rhGAA; [7]): 11.8 °C
– | – | – | – | – | – | – | OC[C@@]12CCN1C[C@H](O)[C@@H](O)[C@@H]2O [Compound (IIh), (3S,4R,5R,6R)-6-(hydroxymethyl)-1-azabicyclo[4.2.0]octane-3,4,5-triol] | 5.01 | –
5.19 | 4.31 | 6.2 °C | – | – | – | – | CCCCC[C@]1(CO)NC[C@H](O)[C@@H](O)[C@@H]1O [Compound (IIb1), (2R,3R,4R,5S)-2-(hydroxymethyl)-2-pentylpiperidine-3,4,5-triol] | – | –
– | – | 16.8 °C | – | – | – | – | OC[C@@]1(CCC2CCCCC2)NC[C@H](O)[C@@H](O)[C@@H]1O [Compound (IIb7), (2R,3R,4R,5S)-2-(2-cyclohexylethyl)-2-(hydroxymethyl)piperidine-3,4,5-triol] | – | –
– | – | – | – | – | – | – | OC[C@]12[C@@H](O)[C@H](O)[C@@H](O)CN1[C@@H]2[C@H](O)C1CCCCC1 (stereo partly drawn) [Compound (IIn), (3S,4R,5R,6R,7S)-7-((R)-cyclohexyl(hydroxy)methyl)-6-(hydroxymethyl)-1-azabicyclo[4.1.0]heptane-3,4,5-triol] | 4.61 | –
4.72 | 3.74 | 10.7 °C | < 4.00 | < 3.00 | < 3.00 | < 4.30 | OCC[C@]1(CO)NC[C@H](O)[C@@H](O)[C@@H]1O [(IId), (2R,3R,4R,5S)-2-(2-hydroxyethyl)-2-(hydroxymethyl)piperidine-3,4,5-triol] | 6.82 | ΔTm at 100 µM (rhGAA; [7]): 9.4 °C
4.89 | 4.48 | 15 °C | – | – | – | – | OC[C@@]1(CCCc2ccccc2)NC[C@H](O)[C@@H](O)[C@@H]1O [Compound (IIc1), (2R,3R,4R,5S)-2-(hydroxymethyl)-2-(3-phenylpropyl)piperidine-3,4,5-triol] | – | –

Structure (SMILES) | pKi [2] | pIC50 [2] | ΔTm at 100 µM (rhGAA; [8]) | pIC50 [3] | pIC50 [4] | pIC50 [5] | pIC50 [6] | pIC50 [1] | also measured
OC[C@@]1(CCC23CC4CC(CC(C4)C2)C3)NC[C@H](O)[C@@H](O)[C@@H]1O [Compound (IIr)] | 4.70 | 4.53 | – | – | – | – | – | – | rhGAA ΔTm at pH 7.4 (rhGAA; [I]=100 μM, pH 7.4): 14.5 °C
OC[C@@]12CCCCN1C[C@H](O)[C@@H](O)[C@@H]2O [(IIf), (1R,2R,3S,9aR)-9a-(hydroxymethyl)octahydro-1H-quinolizine-1,2,3-triol] | – | 3.53 | 11.8 °C | < 4.00 | < 3.00 | < 3.00 | < 4.30 | 6.06 | ΔTm at 100 µM (rhGAA; [7]): 6.4 °C
CCCCCCC[C@]1(CO)NC[C@H](O)[C@@H](O)[C@@H]1O [Compound (IIb3), (2R,3R,4R,5S)-2-heptyl-2-(hydroxymethyl)piperidine-3,4,5-triol] | 4.97 | 4.53 | 16.9 °C | – | – | – | – | – | –
OC[C@@]12CCCN1C[C@H](O)[C@@H](O)[C@@H]2O [(IIg), (6S, 7R, 8R, 8aR)-8a-(hydroxymethyl)-octahydroindolizine-6,7,8-triol] | – | 3.41 | – | < 4.00 | < 3.00 | < 3.00 | < 4.30 | 6.34 | ΔTm at 100 µM (rhGAA; read-out: rhGAA ΔTm at pH 4.0): 6.7 °C; ΔTm at 100 µM (rhGAA; read-out: rhGAA ΔTm at pH 7.4): 14.4 °C
C[Si](C)(C)CC[C@]1(CO)NC[C@H](O)[C@@H](O)[C@@H]1O [Compound (IIx1), (2R,3R,4R,5S)-2-(hydroxymethyl)-2-(2-(trimethylsilyl)ethyl)piperidine-3,4,5-triol] | – | 4.39 | 16.5 °C | – | – | – | – | – | –
